Measurements: PubChem BioAssay AID1963853 (Molecular Pharmacology Branch, DTP, NCI, 2024)
pIC50: −log10 of the molar value.

System: 266295-075-R-J1-PDC spheroid viability
Assay: Anticancer human tumor 266295-075-R-J1-PDC patient-derived head and neck squamous carcinoma cell line growth inhibition [POLQ]
Conditions: spheroids with HUVEC and MSC; for pIC50: curve of first compound; for viability, T/C: stronger effect = lower value; active = viability on the fitted dose curve at most 10% of control; inactive = the rest
Method in brief: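 Growth inhibition in 3D: complex spheroids (tumor PDC, HUVEC, MSC) treated with POLQ inhibitor combinations; where Cmax unknown, highest tested concentration 10 microM, except SN-38 at 1 microM.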

[1] = second compound 0.0316 µM, first compound 0.0316 µM
[2] = second compound 0.0316 µM, first compound 0.1 µM
[3] = second compound 0.0316 µM, first compound 0.316 µM
[4] = second compound 0.0316 µM, first compound 1 µM
[5] = second compound 0.0316 µM, first compound 3.16 µM
[6] = second compound 0.0316 µM, first compound 10 µM
[7] = second compound 0.1 µM, first compound 0.0316 µM
[8] = second compound 0.1 µM, first compound 0.1 µM
[9] = second compound 0.1 µM, first compound 0.316 µM
[10] = second compound 0.1 µM, first compound 1 µM
[11] = second compound 0.1 µM, first compound 3.16 µM
[12] = second compound 0.1 µM, first compound 10 µM
[13] = second compound 0.316 µM, first compound 0.0316 µM
[14] = second compound 0.316 µM, first compound 0.1 µM
[15] = second compound 0.316 µM, first compound 0.316 µM
[16] = second compound 0.316 µM, first compound 1 µM
[17] = second compound 0.316 µM, first compound 3.16 µM
[18] = second compound 0.316 µM, first compound 10 µM
[19] = second compound 1 µM, first compound 0.0316 µM
[20] = second compound 1 µM, first compound 0.1 µM
[21] = second compound 1 µM, first compound 0.316 µM
[22] = second compound 1 µM, first compound 1 µM
[23] = second compound 1 µM, first compound 3.16 µM
[24] = second compound 1 µM, first compound 10 µM
[25] = second compound 3.16 µM, first compound 0.0316 µM
[26] = second compound 3.16 µM, first compound 0.1 µM
[27] = second compound 3.16 µM, first compound 0.316 µM
[28] = second compound 3.16 µM, first compound 1 µM
[29] = second compound 3.16 µM, first compound 3.16 µM
[30] = second compound 3.16 µM, first compound 10 µM
[31] = second compound 10 µM, first compound 0.0316 µM
[32] = second compound 10 µM, first compound 0.1 µM
[33] = second compound 10 µM, first compound 0.316 µM
[34] = second compound 10 µM, first compound 1 µM
[35] = second compound 10 µM, first compound 3.16 µM
[36] = second compound 10 µM, first compound 10 µM
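Note: spheroids exposed to compounds for seven days before readout.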

C=CC(=O)N1CCN(c2nc(=O)n(-c3c(C)ccnc3C(C)C)c3nc(-c4c(O)cccc4F)c(F)cc23)C(C)C1 (stereo unspecified) + COC1C(OC(N)=O)C(O)C(Oc2ccc3c(O)c(NC(=O)c4ccc(O)c(CC=C(C)C)c4)c(=O)oc3c2C)OC1(C)C
< 5.00: pIC50 (second compound 0.0316 µM) | pIC50 (second compound 0.1 µM) | pIC50 (second compound 0.316 µM) | pIC50 (second compound 1 µM) | pIC50 (second compound 3.16 µM) | pIC50 (second compound 10 µM)
inactive: viability, T/C [1] 88.8% | viability, T/C [2] 94.7% | viability, T/C [3] 133% | viability, T/C [4] 118% | viability, T/C [5] 112% | viability, T/C [6] 112% | viability, T/C [7] 98.7% | viability, T/C [8] 90.6% | viability, T/C [9] 94% | viability, T/C [10] 104% | viability, T/C [11] 96% | viability, T/C [12] 129% | viability, T/C [13] 96.9% | viability, T/C [14] 103% | viability, T/C [15] 104% | viability, T/C [16] 106% | viability, T/C [17] 125% | viability, T/C [18] 105% | viability, T/C [19] 85.9% | viability, T/C [20] 114% | viability, T/C [21] 93.4% | viability, T/C [22] 106% | viability, T/C [23] 139% | viability, T/C [24] 124% | viability, T/C [25] 92.2% | viability, T/C [26] 98.4% | viability, T/C [27] 108% | viability, T/C [28] 112% | viability, T/C [29] 116% | viability, T/C [30] 117% | viability, T/C [31] 97% | viability, T/C [32] 79.3% | viability, T/C [33] 92.5% | viability, T/C [34] 122% | viability, T/C [35] 109% | viability, T/C [36] 114%

COc1cc(C2c3cc4c(cc3C(OC3OC5COC(C)OC5C(O)C3O)C3COC(=O)C23)OCO4)cc(OC)c1O (stereo unspecified) + COC1C(OC(N)=O)C(O)C(Oc2ccc3c(O)c(NC(=O)c4ccc(O)c(CC=C(C)C)c4)c(=O)oc3c2C)OC1(C)C
< 5.00: pIC50 (second compound 0.0316 µM) | pIC50 (second compound 0.1 µM) | pIC50 (second compound 0.316 µM) | pIC50 (second compound 1 µM) | pIC50 (second compound 3.16 µM) | pIC50 (second compound 10 µM)
inactive: viability, T/C [1] 81.4% | viability, T/C [2] 118% | viability, T/C [3] 93.5% | viability, T/C [4] 89.6% | viability, T/C [5] 89.1% | viability, T/C [6] 76.9% | viability, T/C [7] 88.7% | viability, T/C [8] 105% | viability, T/C [9] 110% | viability, T/C [10] 83.2% | viability, T/C [11] 85.1% | viability, T/C [12] 77.4% | viability, T/C [13] 90.1% | viability, T/C [14] 98.5% | viability, T/C [15] 89.8% | viability, T/C [16] 87% | viability, T/C [17] 83.3% | viability, T/C [18] 82% | viability, T/C [19] 101% | viability, T/C [20] 92.1% | viability, T/C [21] 86.3% | viability, T/C [22] 96.9% | viability, T/C [23] 91.1% | viability, T/C [24] 72.2% | viability, T/C [25] 102% | viability, T/C [26] 91.2% | viability, T/C [27] 114% | viability, T/C [28] 94.7% | viability, T/C [29] 99% | viability, T/C [30] 83% | viability, T/C [31] 116% | viability, T/C [32] 116% | viability, T/C [33] 120% | viability, T/C [34] 92.4% | viability, T/C [35] 110% | viability, T/C [36] 80.5%

COc1cccc(OCCCN)c1-c1cc(Nc2cnc(C#N)cn2)n[nH]1 + Cc1cccc(N(C)C(=O)C2C(O)CCN2c2nc(C)cc(C(F)(F)F)c2C#N)c1
< 6.00: pIC50 (second compound 0.0316 µM) | pIC50 (second compound 0.1 µM) | pIC50 (second compound 0.316 µM) | pIC50 (second compound 3.16 µM) | pIC50 (second compound 10 µM)
inactive: viability, T/C (second compound 0.0316 µM, first compound 0.00316 µM) 128% | viability, T/C (second compound 0.0316 µM, first compound 0.01 µM) 127% | viability, T/C [1] 87.2% | viability, T/C [2] 80% | viability, T/C [3] 81.7% | viability, T/C [4] 72% | viability, T/C (second compound 0.1 µM, first compound 0.00316 µM) 101% | viability, T/C (second compound 0.1 µM, first compound 0.01 µM) 101% | viability, T/C [7] 83.3% | viability, T/C [8] 76.3% | viability, T/C [9] 79.1% | viability, T/C [10] 62% | viability, T/C (second compound 0.316 µM, first compound 0.00316 µM) 109% | viability, T/C (second compound 0.316 µM, first compound 0.01 µM) 90.7% | viability, T/C [13] 68% | viability, T/C [14] 71.1% | viability, T/C [15] 72.1% | viability, T/C [16] 63.9% | viability, T/C (second compound 1 µM, first compound 0.00316 µM) 127% | viability, T/C (second compound 1 µM, first compound 0.01 µM) 85.5% | viability, T/C [19] 89.8% | viability, T/C [20] 75.1% | viability, T/C [21] 66.7% | viability, T/C [22] 50.1% | viability, T/C (second compound 3.16 µM, first compound 0.00316 µM) 106% | viability, T/C (second compound 3.16 µM, first compound 0.01 µM) 101% | viability, T/C [25] 77.7% | viability, T/C [26] 77.7% | viability, T/C [27] 75.2% | viability, T/C [28] 64.8% | viability, T/C (second compound 10 µM, first compound 0.00316 µM) 107% | viability, T/C (second compound 10 µM, first compound 0.01 µM) 108% | viability, T/C [31] 81.5% | viability, T/C [32] 74.3% | viability, T/C [33] 58.5% | viability, T/C [34] 75.3%
6.01: pIC50 (second compound 1 µM)
